# Results filed as inconclusive are left out. Activity calls are given as the source filed them. How the calls were made is not given here; tested in MIN6 cells.
# Assay: GFP-wavelength compound autofluorescence in cells – imaging, high-content imaging, artefact control, dose response (AID 2124);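 further: cells exposed to compound for 48 hours before fixing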
# Conditions: cells, GFP-channel autofluorescence, high-content imaging, at 10 µM; for z-score: stronger effect = higher value
Compound,z-score,cell count [cells]
COc1ccccc1CC(=O)NC1CC(C)(C)NC(C)(C)C1,-0.33 (inactive),2940
Nc1cccc2c1C(=O)N(C(=O)c1cccc(S(=O)(=O)N3CCCC3)c1)C2=O,-0.39 (inactive),3320
COc1cccc2c(=O)n(CC(=O)Nc3cccc(F)c3)ccc12,-0.33 (inactive),3120
Cc1ccc(NC(=O)CCn2cccc2)cc1Cl,-0.33 (inactive),3190
C=CCSc1nnc(NC(=O)c2cccc(S(=O)(=O)N3CCOCC3)c2)s1,-0.38 (inactive),2670
COc1nc(OC)nc(N2CCC(C(=O)NCc3cccs3)CC2)n1,-0.33 (inactive),2940
Cc1cc(N/N=C/c2ccc([N+](=O)[O-])o2)nc2ccccc12,0.28,733
COc1ccccc1NC(=O)COC(=O)C1CC2C=CC1C2 (stereo not drawn),-0.25 (inactive),2990
COc1cc(Cl)c(C)cc1NC(=O)CN(C)Cc1cccc(OC)c1OC,-0.26 (inactive),2910
COc1ccc2nc(SCC(=O)Nc3c(C)cccc3C)[nH]c2c1,-0.39 (inactive),3480
COc1cc2c3nnc(-c4ccccc4)c-3cn(Cc3ccccc3F)c2cc1OC,3.78,770
COc1ccc(-c2nnn(CC(=O)N(CCO)C(C(=O)NC3CCCC3)c3ccc(F)cc3)n2)cc1 (stereo not drawn),-0.33 (inactive),3200
COC(=O)c1c[nH]n2c(=O)c(Cc3ccc(F)cc3Cl)c(C)nc12,-0.33 (inactive),3100
COc1ccc(-c2ccc3c(N)c(C(=O)c4cccc(OC)c4)sc3n2)cc1,-0.24 (inactive),2850
CCN(CC)CCn1c(=S)[nH]c2ccc(Cl)cc2c1=O,-0.33 (inactive),2890
CCOc1ccc(OCCCCn2ccnc2)cc1,-0.39 (inactive),2900
CC(=O)c1sc2nc(-c3cccs3)cc(C(F)(F)F)c2c1N,0.17,3260
Cc1cccc(Oc2nccc(C(F)(F)F)c2C(=O)Nc2ccc(F)cc2F)c1,-0.39 (inactive),3510
N#CCc1nc(CSc2nc3ccccc3s2)cs1,-0.32 (inactive),2980
Cc1cc(C)cc(-n2c(=O)c3sccc3n(CC(=O)NCc3ccco3)c2=O)c1,-0.39 (inactive),3120
O=C(CSc1ncn[nH]1)NCc1ccccc1,-0.39 (inactive),3380
CC(=O)c1ccc2cccc3c2c1N=CN3C,-0.23 (inactive),3230
CN(CCCNC(=O)CN1C(=O)CC(C)(C)S(=O)(=O)c2ccccc21)C1CCCCC1,-0.33 (inactive),3030
CCCCNc1ccc2c3c(cccc13)C(=O)N(CCCC)C2=O,3.41,2720
CC(=O)Nc1sc(/C(C#N)=C/c2ccc(Cl)c(Cl)c2)nc1-c1ccc(C)cc1,1.08,2880
CC(C)=NNc1nc2c(c(=O)n(C)c(=O)n2C)n1CCc1ccccc1,-0.39 (inactive),3610
CC(C)(C)C(=O)/C=c1\s/c(=C\c2ccc(-c3ccc([N+](=O)[O-])cc3)o2)c(=O)n1CC(=O)NC(N)=O,4.23,3110

Compound,z-score,cell count [cells]
CNC(=O)C1CC(=O)N/C(=N/N=C(\C)c2cccs2)S1 (stereo not drawn),-0.38 (inactive),3440
CC1CCCCC1NC(=O)COC(=O)c1c2c(nc3ccccc13)/C(=C/c1ccco1)CC2 (stereo not drawn),-0.35 (inactive),2820
Cn1c(=O)c(NC2CCCCC2)c2c3c(cccc31)C(=O)c1ccccc1-2,3.32,3050
N#C/C(=C/c1ccc(N2CCCCCC2)o1)c1ccc(Cl)cc1,0.94,277
CCOC(=O)CC1C(=O)NCCN1S(=O)(=O)c1ccc(Cl)cc1Cl (stereo not drawn),-0.33 (inactive),3500
CCCCn1c(=O)[nH]c2nc3cc(N)ccc3nc2c1=O,-0.32 (inactive),3540
O=C(/C=C/c1c[nH]c2ccccc12)c1c(O)n(CCc2ccccc2)c(=O)[nH]c1=O,2.73,2920
Nc1c(C(=O)N/N=C/c2cccnc2)oc2nc(-c3ccco3)cc(-c3ccco3)c12,-0.32 (inactive),2960
Cc1cc(Nc2nn(C)c(N)c2C#N)ccc1F,-0.33 (inactive),3300
CCC(=O)Nc1ccc2c(c1)ncn2-c1ccccc1,-0.34 (inactive),3260
Cc1ccc(-c2ccc(/C=C(\C#N)C(=O)Nc3cc(C)nn3-c3ccccc3)o2)cc1,1.66,2460
N#C/C(=C\c1ccc(-c2ccc(C(=O)O)cc2)o1)c1nc2ccccc2[nH]1,-0.29 (inactive),3280
c1ccc(-n2ncc3c(N4CCN(c5ccccn5)CC4)nc(N4CCCCCC4)nc32)cc1,-0.38 (inactive),3020
Cc1ccc(-n2c(Cc3cccs3)nnc2SCC(=O)OC(C)C)cc1,-0.38 (inactive),2980
Cc1nnc(NC(=O)c2sc3nc(-c4cccs4)cc(C(F)(F)F)c3c2N)s1,0.85,2610
Cc1ccccc1OCC(=O)OC1CCN(C)CC1,-0.38 (inactive),2940
Cc1ccc(C(=O)NN2C(=O)/C(=C/c3cn(C)c4ccccc34)SC2=S)cc1,-0.27 (inactive),3060
Cc1ccc(C)c(NC(=O)C(C)CC2COCCO2)c1 (stereo not drawn),-0.38 (inactive),3230
COC(CNC(=O)c1ccc(Cn2c(=S)[nH]c3cc4c(cc3c2=O)OCO4)cc1)OC,-0.33 (inactive),3340
Cc1cc2nc3c(=O)n(Cc4ccccc4)c(=O)[nH]c3nc2cc1N,-0.33 (inactive),2710
Cc1cc(/C=N/n2cnnc2)c(C)n1-c1cccc(C(=O)O)c1,-0.33 (inactive),2960
CN1/C(=C/C=C(C#N)C#N)C=Cc2ccccc21,-0.35 (inactive),2500
CC1=NNC(=O)C1CCC(=O)N/N=C/c1ccc(C)cc1 (stereo not drawn),-0.39 (inactive),3320
CCCCc1ccc2[nH]cc(CCN)c2c1,-0.38 (inactive),2320
CC(C)NC(=O)NC(=O)COC(=O)c1cccc(S(=O)(=O)N2CCCCC2)c1,-0.39 (inactive),3040
CC(NC(=O)/C(C#N)=C1\N=C(NC(=O)c2cccs2)c2ccccc21)c1ccccc1 (stereo not drawn),-0.38 (inactive),2810
COc1ccc(C2C(C(=O)c3ccccc3)=C(C)Nc3nc4ccccc4n32)c(OC)c1 (stereo not drawn),-0.33 (inactive),3000

Compound,z-score,cell count [cells]
O=C(Cc1nc(-c2ccc([N+](=O)[O-])cc2)cs1)Nc1ccccc1,-0.39 (inactive),2770
Cc1cccc(-c2ncc(CN3CCCC(CO)(Cc4ccccc4C)C3)cn2)c1 (stereo not drawn),-0.35 (inactive),3340
C=CCn1c(-c2oc3nc(-c4ccccc4)cc(-c4ccccc4)c3c2N)n[nH]c1=S,-0.33 (inactive),2820
COc1cccc(OC)c1OCCN(C)C,-0.33 (inactive),3360
CN1/C(=C\C=C2C(=O)NC(=S)NC2=O)C(C)(C)c2ccccc21,3.61,2700
Cc1ccn2c(NC3CCCCC3)c(C)nc2c1,-0.39 (inactive),2990
COc1cccc(C(=O)CN2C(=O)C(C)(C)Oc3ccc(C(=O)N4CCCCCC4)cc32)c1,-0.33 (inactive),3680
COc1ccc(C2C=C(c3cccs3)Nc3nc(CCCO)nn32)cc1 (stereo not drawn),-0.38 (inactive),2650
Cc1nc2c(oc3ccccc32)c(=O)o1,-0.33 (inactive),3020
Cc1ccccc1NCC(=O)N/N=C/c1c[nH]c2ccccc12,-0.33 (inactive),2720
CCN1CCN(C2=CC3=CC(=C(C#N)C#N)CCC3CC2)CC1 (stereo not drawn),1.63,3180
CCOc1ccc(NC2=NCC(=O)N2Cc2cccs2)cc1,-0.38 (inactive),3020
C=CCC(c1ccccc1)N(C(C)=O)c1ccco1 (stereo not drawn),-0.33 (inactive),3430
Cc1ccc2[nH]c(-c3ccccc3)c(CN(C)C)c(=O)c2c1,-0.33 (inactive),3240
COc1ccc(OCCn2cc(/C(N)=N/O)c3ccccc32)cc1,-0.33 (inactive),2930
Brc1ccc(Oc2nsnc2N2CCOCC2)cc1,-0.34 (inactive),3270
COc1ccc(C2/C=C\CN(S(=O)(=O)c3cccc4cccnc34)CC(=O)N2Cc2ccc(F)cc2)cc1 (stereo not drawn),-0.39 (inactive),3760
CCCS(=O)(=O)N1CCC(C(=O)N2CCOCC2)CC1,-0.38 (inactive),2930
Cc1nn(-c2ccccc2)c(C)c1NC(=O)CCl,-0.33 (inactive),1910
CCCOc1ccc(-c2nn(-c3ccccc3)cc2/C=C2\SC(=S)N(C3CCS(=O)(=O)C3)C2=O)cc1 (stereo not drawn),-0.23 (inactive),2830
C=CCn1c(SCCOc2ccc(OC)cc2)nnc1C(C)NC(=O)Cc1ccc(OC)cc1 (stereo not drawn),-0.33 (inactive),3140
CCN1C(=O)/C(=C/C=C2\N(CC)c3cc(S(=O)(=O)N(C)C)ccc3N2c2ccccc2)SC1=S,0.11,2840
C=CCNC(=O)/C(=C\c1ccc(Br)cc1)NC(=O)c1ccccc1OC,-0.39 (inactive),3390
O=C(N/N=C\c1cn(-c2ccccc2)nc1-c1ccccc1)c1ccc(Br)o1,-0.32 (inactive),626
CCCN1CC=C2C(C#N)=C(N)C(C#N)(C#N)C(c3cc(OC)ccc3OC)C2C1 (stereo not drawn),0.52,3140

# — PubChem BioAssay AID2124 (Sanford-Burnham Center for Chemical Genomics, 2009)
